The target in one test is CK1a (Homo sapiens, UniProt P48729). The test can be described thus: binding to immobilized V16742 (IVA1/IVA2, HeLa lysate, MS).
For a further test, the target named is GSK3A (Homo sapiens, UniProt P49840). The description is as above.
The next test concerns the target T1, GAK (Homo sapiens, UniProt O14976).
T1 sequence (O14976 1-1311): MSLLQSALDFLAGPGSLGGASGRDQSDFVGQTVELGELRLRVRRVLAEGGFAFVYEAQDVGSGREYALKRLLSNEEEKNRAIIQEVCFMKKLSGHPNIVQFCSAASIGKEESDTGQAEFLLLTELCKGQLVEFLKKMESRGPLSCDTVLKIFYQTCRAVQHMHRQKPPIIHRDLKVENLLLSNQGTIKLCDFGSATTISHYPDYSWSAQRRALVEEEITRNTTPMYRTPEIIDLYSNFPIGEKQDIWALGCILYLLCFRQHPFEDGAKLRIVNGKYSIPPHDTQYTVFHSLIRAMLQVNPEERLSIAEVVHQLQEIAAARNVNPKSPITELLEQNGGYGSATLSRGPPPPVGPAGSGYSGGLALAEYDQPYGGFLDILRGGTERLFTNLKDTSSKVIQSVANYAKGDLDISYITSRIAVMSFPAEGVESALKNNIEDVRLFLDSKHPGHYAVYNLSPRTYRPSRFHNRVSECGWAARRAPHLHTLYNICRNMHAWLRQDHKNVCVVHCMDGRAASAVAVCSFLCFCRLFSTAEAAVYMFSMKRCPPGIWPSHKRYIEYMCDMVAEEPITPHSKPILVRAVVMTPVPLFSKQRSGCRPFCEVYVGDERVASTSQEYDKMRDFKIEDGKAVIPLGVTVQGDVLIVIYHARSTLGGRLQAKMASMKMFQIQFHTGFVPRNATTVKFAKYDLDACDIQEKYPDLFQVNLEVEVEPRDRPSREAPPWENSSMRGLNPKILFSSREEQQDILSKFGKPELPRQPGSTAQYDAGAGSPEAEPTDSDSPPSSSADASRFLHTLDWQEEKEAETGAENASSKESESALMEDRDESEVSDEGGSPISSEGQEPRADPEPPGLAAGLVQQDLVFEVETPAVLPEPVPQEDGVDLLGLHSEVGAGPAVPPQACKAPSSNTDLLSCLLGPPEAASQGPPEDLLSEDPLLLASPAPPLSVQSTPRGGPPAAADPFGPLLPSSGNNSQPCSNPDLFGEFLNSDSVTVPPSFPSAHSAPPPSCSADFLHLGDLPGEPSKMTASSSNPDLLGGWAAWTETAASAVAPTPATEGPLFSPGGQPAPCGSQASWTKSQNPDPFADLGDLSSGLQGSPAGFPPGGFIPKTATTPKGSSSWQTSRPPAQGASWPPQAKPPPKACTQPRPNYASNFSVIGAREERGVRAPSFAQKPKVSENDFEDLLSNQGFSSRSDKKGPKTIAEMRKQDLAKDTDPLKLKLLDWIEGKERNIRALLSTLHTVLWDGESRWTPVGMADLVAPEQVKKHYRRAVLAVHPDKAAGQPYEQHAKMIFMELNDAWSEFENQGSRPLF
The description is as above.

In a further test the target is T2, ACAD10 (Homo sapiens, UniProt Q6JQN1).
T2 sequence (Q6JQN1 1-1059): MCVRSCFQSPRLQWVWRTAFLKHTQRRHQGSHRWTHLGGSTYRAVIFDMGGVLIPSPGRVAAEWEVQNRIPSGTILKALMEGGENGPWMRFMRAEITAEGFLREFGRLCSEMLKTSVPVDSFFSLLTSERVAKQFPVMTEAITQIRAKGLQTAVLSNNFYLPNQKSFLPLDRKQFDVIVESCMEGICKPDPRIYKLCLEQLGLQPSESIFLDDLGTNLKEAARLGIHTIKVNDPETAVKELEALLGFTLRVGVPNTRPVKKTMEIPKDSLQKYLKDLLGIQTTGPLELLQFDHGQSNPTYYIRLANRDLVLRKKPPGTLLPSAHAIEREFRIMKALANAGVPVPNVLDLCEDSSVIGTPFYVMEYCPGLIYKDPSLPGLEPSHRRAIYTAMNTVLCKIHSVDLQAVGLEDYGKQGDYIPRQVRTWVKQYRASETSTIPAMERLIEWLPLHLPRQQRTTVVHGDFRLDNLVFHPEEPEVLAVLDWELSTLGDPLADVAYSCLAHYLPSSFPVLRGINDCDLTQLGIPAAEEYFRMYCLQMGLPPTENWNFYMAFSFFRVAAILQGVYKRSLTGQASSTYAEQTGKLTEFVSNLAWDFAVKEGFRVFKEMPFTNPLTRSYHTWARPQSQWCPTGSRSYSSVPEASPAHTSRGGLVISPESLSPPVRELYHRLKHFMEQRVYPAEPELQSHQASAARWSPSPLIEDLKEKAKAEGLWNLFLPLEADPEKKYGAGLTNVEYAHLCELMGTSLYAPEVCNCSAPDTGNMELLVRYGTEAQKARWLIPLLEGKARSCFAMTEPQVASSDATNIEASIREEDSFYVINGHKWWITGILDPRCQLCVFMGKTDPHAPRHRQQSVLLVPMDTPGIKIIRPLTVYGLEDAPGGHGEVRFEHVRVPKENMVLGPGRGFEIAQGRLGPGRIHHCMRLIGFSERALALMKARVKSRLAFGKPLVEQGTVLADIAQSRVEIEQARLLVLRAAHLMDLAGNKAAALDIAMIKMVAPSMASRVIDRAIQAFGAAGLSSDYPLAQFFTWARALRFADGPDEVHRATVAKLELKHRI

pKd: −log10 of the molar value. Read-outs that look alike come from different tables or passages of the source.

Sequence of GSK3A (P49840 whole entry): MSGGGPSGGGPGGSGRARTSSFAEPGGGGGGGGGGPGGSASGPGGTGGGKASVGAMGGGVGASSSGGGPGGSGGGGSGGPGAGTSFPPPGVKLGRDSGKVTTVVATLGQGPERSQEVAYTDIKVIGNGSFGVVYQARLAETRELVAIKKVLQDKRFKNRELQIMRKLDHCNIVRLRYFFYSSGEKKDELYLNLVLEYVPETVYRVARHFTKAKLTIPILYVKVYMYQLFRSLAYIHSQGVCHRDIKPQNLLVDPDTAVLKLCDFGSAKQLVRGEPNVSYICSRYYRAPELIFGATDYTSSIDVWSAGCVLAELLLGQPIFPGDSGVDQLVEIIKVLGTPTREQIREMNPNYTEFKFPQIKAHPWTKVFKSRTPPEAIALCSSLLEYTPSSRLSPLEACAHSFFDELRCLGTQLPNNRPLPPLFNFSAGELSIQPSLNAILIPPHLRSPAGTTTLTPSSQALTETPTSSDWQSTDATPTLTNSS
Sequence of CK1a (P48729 whole entry): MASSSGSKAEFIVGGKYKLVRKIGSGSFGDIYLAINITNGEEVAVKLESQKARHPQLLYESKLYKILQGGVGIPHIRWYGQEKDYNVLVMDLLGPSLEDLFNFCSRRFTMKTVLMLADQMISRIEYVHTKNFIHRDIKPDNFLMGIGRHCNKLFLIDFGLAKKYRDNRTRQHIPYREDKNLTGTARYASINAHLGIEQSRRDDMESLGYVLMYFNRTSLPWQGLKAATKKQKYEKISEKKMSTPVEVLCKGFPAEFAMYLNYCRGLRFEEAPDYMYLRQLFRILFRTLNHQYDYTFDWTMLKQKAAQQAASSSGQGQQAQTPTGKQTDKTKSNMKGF

Usually pKd stands for the Kd on a negative log10 scale, so that one unit is a factor of ten. As for `CC(C)n1c(=O)ccc2cnc(Nc3ccc(OCCN)cc3)nc21` [compound 16742], the “Percent bound at 1.87 μM 16742 conc” value on CK1a (EXPERIMENT 1) was 6.51%; on CK1a (EXPERIMENT 2) it was 5.11%; on GSK3A (EXPERIMENT 1), 7.34%; on GSK3A (EXPERIMENT 2), 4.30%; on GAK (EXPERIMENT 1), 8.35%; at GAK (EXPERIMENT 2), 6.15%. For the same compound, the “Percent bound at 8.74 μM 16742 conc” value came out at 31.78% at CK1a (EXPERIMENT 1); 34.46% at CK1a (EXPERIMENT 2); 35.37% on GSK3A (EXPERIMENT 1); 29.09% at GSK3A (EXPERIMENT 2); 29.77% at GAK (EXPERIMENT 1); 27.34% on GAK (EXPERIMENT 2). Also, the “Percent bound at 52 μM 16742 conc” value at CK1a (EXPERIMENT 1) was 60.94%; at CK1a (EXPERIMENT 2) it was 83.66%; on GSK3A (EXPERIMENT 1), 84.48%; at GSK3A (EXPERIMENT 2), 78.29%; on GAK (EXPERIMENT 1), 69.07%; on GAK (EXPERIMENT 2) it was 63.94%. Also, the pKd at CK1a (EXPERIMENT 1, read-out: Kd) is 4.68; on CK1a (EXPERIMENT 2, read-out: Kd), 4.77; at CK1a (read-out: Kd Avg), 4.73; on GSK3A (EXPERIMENT 1, read-out: Kd), 4.84; on GSK3A (EXPERIMENT 2, read-out: Kd), 4.73; on GSK3A (read-out: Kd Avg), 4.78. Further, the pKd was 4.66 on GAK (EXPERIMENT 1, read-out: Kd); 4.57 on GAK (EXPERIMENT 2, read-out: Kd); 4.61 at GAK (read-out: Kd Avg).

As to `COc1cc2ncnc(Nc3ccc(F)c(Cl)c3)c2cc1OCCCN1CCOCC1` [gefitinib], on ACAD10, the “rAVERAGE (10 nM/0 nM Gef.)” value came to 1.17, the “rAVERAGE (100 nM/0 nM Gef.)” value is listed as 0.86, the “rAVERAGE (1000 nM/0 nM Gef.)” value was found to be 1.07 and the “rAVERAGE (10000 nM/0 nM Gef.)” value is recorded as 0.24.

Values taken from US8959984B2, “Proteome-wide quantification of small molecule binding to cellular target proteins” (priority 2007, dated 2015).
